Reference: patent US20230190657A1, “METHODS AND COMPOSITIONS FOR TREATING A FIBROTIC DISEASE” (TRUSTEES OF BOSTON UNIVERSITY, priority 2020, published 2023)
“Also recorded” adds a separate entry of the source.

Tests used:
[1] = Circular dichroism spectroscopy of relaxin-2 fold and stability; type: physicochemical
Protocol: Relaxin-2 loaded PLGA microparticles (RMPs) were prepared based on the water/oil/water (w/o/w) method as described by Igartua, M., et. al., International Journal of Pharmaceutics, 1998, 169(1): 45-54 at 1.27 x 10-3 wt % loaded relaxin as determined by ELISA analysis. Significant optimization and tailoring of the method was required to obtain the particle. Amounts, time, temperature, mixing speed, polymer LA:GA content were all varied to identify a unique non-obvious set of conditions to prepare the polymer. […] Relaxin-2 in the relaxin-2 microparticles maintained its native secondary and tertiary structure through the w/o/w double-emulsion process. […] Additionally, relaxin-2 was stable at 37° C. over 2 months (FIG. 2, right). The relaxin-2 PLGA microparticles were prepared with batch-to-batch consistency and were resuspended in PEG-600 to reduce aggregation and flocculation, as well as to ease administration through a 23G needle.
Two amphiphilic hydrogels were synthesized for the physical entrapment of relaxin-2 in order to control its sustained release (FIG. 6). These amphiphilic molecules melted at 95 °C and congealed when slowly cooled back to room temperature strictly from non-covalent interactions. The alkyl chain of 1 and alkyl fluoride chain of 2 allow for hydrophobic interactions between each molecule, while the […] and thymidine moieties allow for pi-pi stacking. Lastly, the deoxyribose and glucose groups facilitate hydrogen bonding (Godeau, G., et al., Tetrahedron Letters 2010, 51: 1012-1015; Ramen, F.A. et al., Biomaterials. 2017, 145: 72-80). Together, these amphiphilic molecules create unique and stable supramolecular assemblies that are stable at 37 °C for at least two weeks. This stability feature is another novel finding and benefit to the use of the hydrogels. Three gels of each 1 and 2 were created with bovine serum albumin and relaxin-2 at different densities by dissolving each molecule in a solution of phosphate buffered saline with protein and heating to 95 °C for 30 minutes. […] After cooling down to room temperature, relaxin-2-loaded gels were fully congealed (FIG. 7, right).

[2] = system: collagen I expression in human fibroblast-like synoviocytes (HFLS); assay: Collagen I expression in HFLS treated with relaxin-2 microparticles in transwells; type: cell-based
Text: Human fibroblast-like synoviocytes (HFLS) treated with relaxin-2 microparticles in transwells allow for evaluation of the release and efficacy of released relaxin-2 at various time points. […] In the presence of relaxin-2, collagen I is expressed at 20 to 30 % of the basal level at weeks 1, 3, and 4.

[3] = system: stiff shoulder (shoulder contracture), glenohumeral joint; assay: Range of motion in rat shoulder contracture model; type: in vivo, rats
Protocol: The study was approved by the Institutional Animal Care and Use Committee, and 10 Sprague-Dawley rats (250-300 g, Charles River Laboratories, Wilmington, MA, USA) were used in the study. For each animal, torque was measured per degree, on the intact left shoulder as a function of rotation angle between 80° of internal rotation (negative values by convention) and 60° of external rotation (positive values by convention) prior to any surgical intervention (baseline). […] Therefore, torque values at 60° external rotation (rOUT) and 80° of internal rotation (τINT) were recorded for each animal.
The left forelimb of each animal was immobilized using extraarticular internal fixation. Under isoflurane anesthesia, a longitudinal skin incision was made perpendicular to the scapular spine. Two No. 2-0 braided polyester sutures (Ethibond Excel, Ethicon - San Lorenzo, PR, USA) were passed between the medial border of the scapula and the humeral shaft and tightened to immobilize the shoulder joint (FIG. 1, panel A). Muscular structures were not manipulated during surgery, and the animals were allowed normal activity in their cages immediately after the procedure.
After 8 weeks of immobilization, the restraining sutures were removed, and the 10 animals were divided into two groups to evaluate changes in ROM (ROM group, n = 5) and joint stiffness (stiffness group, n = 5). In the ROM group, changes in kinematics were longitudinally quantified in the follow-up period by measuring the ROM achieved with the τOUT and τINT measured at baseline. This was conducted to evaluate whether immobilization mediated a significant reduction in ROM. In the stiffness group, joint kinetics were examined by measuring the differences in τOUT and τINT needed to achieve the original 80° of internal rotation and 60° of external rotation, respectively. […]
To reproducibly capture ROM and torque, passive limb rotation was performed by a stepper motor controlled with a microcontroller (UNO R3, Arduino - Torino, Italy). […] In the ROM group, pre-set programmable torque values, specific for each animal and measured at baseline (τOUT and τINT), were used as input variables in order to detect changes in rotation ROM with 0.2° resolution. […]
This study investigated the effects of recombinant human relaxin-2 on the kinetics and kinematics of the glenohumeral joint in an animal model of shoulder contracture, as described in Villa-Camacho et al., Journal of Shoulder and Elbow Surgery, 2015, 24(11): 1809-16. […] For each animal, torque was measured per degree, on the intact left shoulder as a function of rotation angle between […] and 60° of external rotation prior to any surgical intervention. […]

[4] = system: shoulder joint (arthrofibrosis); assay: Histological analysis of the shoulder joint in rat shoulder contracture model; type: in vivo; conditions: immobilized shoulders of rats; mIA of relaxin-2 or relaxin loaded microparticles
human fibroblasts = conditions: cited from earlier work
[5] = system: collagen build-up in the lung induced by bleomycin; conditions: cited from earlier work
[6] = system: cultured renal fibroblasts, epithelial cells and mesangial cells; conditions: cited from earlier work
heart failure = conditions: 30 micrograms/kg/day for 2 days, intravenous infusion; cited from earlier work
[7] = in vivo; cited from earlier work
[8] = system: scleroderma (systemic sclerosis); conditions: cited from earlier work

For Relaxin-2, the “time stable at 37° C. without loss of alpha helical structure” value [1] was “up to 2 months”, the “time stable at 37° C. without loss of alpha helical structure” value ([1]; listed as relaxin-2) was 2 months and the “conformation after incubation at 95° C.” value ([1]; 95° C., at least one hour) was “maintains its folded 3D structure; also recorded: tolerant to incubation for at least one hour”. For the same substance, the “secondary (alpha helical) structure after the double emulsion process” value ([1]; w/o/w double emulsion of PLGA microparticle synthesis) was “no change; also recorded: unaffected by the double emulsion process”, the “antifibrotic efficacy (downregulation of collagen I expression) of released relaxin-2” value ([2]; HFLS / synoviocytes, over four weeks, versus untreated control) was “significant downregulation in collagen I expression” and the “collagen I level by densitometry (reduced to)” value ([2]; synoviocytes, legend of FIG. 4 breaks off) was “approximately 50%”. For the same substance, the “internal ROM” value ([3]; intravenous injection at a much greater dose) was “similarly constricted internal ROM compared with the untreated control group”, the “internal ROM” value ([3]; relaxin-2 as mIA (5 intraarticular injections of 2 ug/kg every other day), RMP as single injection of approximately 10 ug/kg) was “significant increase back to healthy baseline by week 2” and the “internal ROM” value ([3]; relaxin-2 as mIA (5 intraarticular injections of 2 ug/kg every other day), RMP as single injection of approximately 10 ug/kg, listed as relaxin-2) was “restoration of internal ROM to baseline measurements”. The “internal ROM” value ([3]; singular articular injection) was “similarly constricted internal ROM compared with the untreated control group”, the “histology: adhesions / hallmarks of arthrofibrosis” value [4] was “lacked any apparent adhesions” and the “collagen and fibronectin levels” value (human fibroblasts) was “reduction in levels of collagen types I and III and fibronectin”. The lung collagen build-up [5] was “decreased collagen build-up in the lung induced by bleomycin”, the TGF-β-induced fibronectin levels [6] was “decreased TGF-β-induced fibronectin levels” and the “primary endpoint of effectiveness” value (heart failure) was “did not meet the trial’s primary endpoint of effectiveness”. For the same substance, the pharmacokinetic profile [7] was “rapid pharmacokinetic profile”, the “primary endpoint of effectiveness” value ([8]; 25 micrograms/kg/day for 24 weeks, subcutaneous delivery) was “did not meet the trial’s primary endpoint of effectiveness” and the renal adverse events ([8]; human, in vivo, sc) was “declines in creatine clearance and renal adverse events”.
